# Patent US20060210478A1, “Steady state perfusion methods” (priority 2005, published 2006)
# How the values were obtained:
# [1] = tested on: domestic pig; details: pig with 80-90% LCX stenosis, 0.05 mmol/kg i.v.
# From the text: A domestic pig (approx 50 kg B.W.) is anesthetized and intubated. The animal undergoes surgical intervention to partially occlude the distal portion of the left circumflex coronary artery (LCX). A calibrated angioplasty balloon is delivered by catheter, guided by X-ray fluoroscopy, from the femoral artery to the heart. It is advanced into the left circumflex coronary artery and inflated to create the equivalent of an 80-90% stenosis. The balloon catheter will remain inflated and at a constant inflation pressure for the duration of the imaging procedure, to simulate a static lesion and stenosis in the coronary artery.
# The pig is then transported to the MRI suite and remains under general anesthesia and intubated for the duration of the imaging examination. Sufficient MRI scout scans to plan the myocardial imaging are acquired. Then 0.05 mmol/kg of MS-325 is administered as a single intraveneous injection. Enough time (ca. 10 minutes) for the agent to achieve equilibrium in the blood elapses before imaging commences.
# Perfusion imaging is performed using a saturation-recovery gradient echo methods in order to sensitize the MRI to the lowered T1 of the imaging agent. Three short-axis slices (7.5 mm, with 7.5 mm slice separations) are acquired, so that 16 of the 17 AHA/ACC myocardial segments can be visualized. […]
# [2] = tested on: domestic pig; details: pig with 80-90% LCX stenosis; 0.05 mmol/kg i.v.; 0.25 mg/kg/min adenosine; confirmed by fluorescent microspheres post-mortem
# From the text: (§1) A domestic pig (approx 60 kg B.W.) is anesthetized and intubated. The animal undergoes surgical intervention to partially occlude the distal portion of the left circumflex coronary artery (LCX). A calibrated angioplasty balloon is delivered by catheter, guided by X-ray fluoroscopy, from the femoral artery to the heart. It is advanced into the Left Circumflex coronary artery and inflated to create the equivalent of an 80-90% stenosis. The balloon catheter will remain inflated and at a constant inflation pressure for the duration of the imaging procedure, to simulate a static lesion and stenosis in the coronary artery.
# The pig is then transported to the MRI suite and remains under general anesthesia and intubated for the duration of the imaging examination. Sufficient MRI scout scans to plan the myocardial imaging are aquired. […] Enough time (ca. 10 minutes) for the agent to achieve equilibrium in the blood elapses before perfusion imaging commences.
# Perfusion imaging is performed using a gradient echo method in order to sensitize the MRI to the lowered T1 of the imaging agent (TR=3.2 ms, FA=12°). Three short-axis 10 mm slices are acquired, so that 16 of the 17 AHA/ACC myocardial segments can be visualized. In this implementation, cardiac-triggering is employed to control heart motion and breathing is suspended to eliminate diaphragmatic motion. […]
# [3] = tested on: domestic pig; details: pig with 80-90% LCX stenosis; 0.05 mmol/kg i.v.; 0.25 mg/kg/min adenosine; confirmed by fluorescent microspheres post-mortem; remark: listed apart in the source
# From the text: as §1
# The pig is then transported to the MRI suite and remains under general anesthesia and intubated for the duration of the imaging examination. Sufficient MRI scout scans to plan the myocardial imaging are aquired. 0.05 mmol/kg of MS-325 is administered as a single intraveneous injection. Enough time (ca. 10 minutes) for the agent to achieve equilibrium in the blood elapses before perfusion imaging.
# Perfusion imaging is performed using a gradient echo method in order to sensitize the MRI to the lowered T1 of the imaging agent (TR=5.0 ms, FA=12°). Three 10 mm short-axis slices are acquired, so that 16 of the 17 AHA/ACC myocardial segments can be visualized. […]
smiles,measurement,setting,value
O=C([O-])CN(CCN(CC(=O)[O-])C[C@H](COP(=O)([O-])OC1CCC(c2ccccc2)(c2ccccc2)CC1)N(CC(=O)[O-])CC(=O)[O-])CC(=O)[O-].[Gd+3].[H+].[H+].[H+] [MS-325],Corresponding image during stress,[1]; after 5 minutes of 0.25 mg/kg/min adenosine infusion,a greater degree of negative contrast with the remaining myocardial wall
same,Analysis of MR images (perfusion imaging at rest),"[1]; imaging ca. 10 minutes after injection, before adenosine",a suspicious hypo-intense region in the anterior wall of the left ventrical
same,Analysis of MR images during vasodilatory stress,[2],a hypo-intense region in the wall of the left ventricle
same,Analysis of MR images during adenosine stress,[3],a hypo-intense region in the myocardial wall
